The record followed here is article PMC11054271, “ABCG2 Transports the Flukicide Nitroxynil and Affects Its Biodistribution and Secretion into Milk” (Pharmaceutics, 2024).

Molecules are shown by their SMILES.

Series [1] is described as follows: Transepithelial transport assay in parental MDCK-II monolayers. Format: in vitro ADME, canine. The conditions noted are these: dog, nitroxynil 10 µM, no Ko143, read-out: Relative efflux transport ratio (BA/AB). On the procedure:
(§1) Parental Madin–Darby canine kidney epithelial cells (MDCK–II) and their subclones transduced with murine (mAbcg2) and human (hABCG2) variants of ABCG2 were kindly provided by Dr. A. H. Schinkel (Netherlands Cancer Institute). Transduced MDCK–II cells with the ovine (oABCG2) and bovine (bABCG2) variants were previously generated by our group. Cells were cultured as described elsewhere.
(§2) Transepithelial transport assays were carried out as previously described with minor variations, using Hanks’ balanced salt solution (Sigma-Aldrich) supplemented with HEPES (25 mM), with or without Ko143 (1 μM), and containing or not nitroxynil 10 μM. […] At the end of the experiment, confluence of the monolayer was measured with the previously described Lucifer Yellow permeability test, with minor modifications. The appearance of nitroxynil in the opposite side of the well was measured by HPLC as later described. Active transport was expressed as relative efflux transport ratio (apically directed transport percentage divided by the basolaterally directed translocation percentage) at 4 h and referred to the initial concentration. […]
(§3) Waters 2695 separation module and Waters 2998 UV photodiode array detector set at 270 nm were used for samples analysis. […] Limit of detection (LOD) and quantification (LOQ) were calculated as previously described. […]

Series [2] deals with T1, bovine ABCG2 (Bos taurus, UniProt Q4GZT4).
T1 construct: expressed in transfected cells; host or cells: MDCK-II (canine kidney) subclone generated by the authors' group
T1 sequence (Q4GZT4 1-655): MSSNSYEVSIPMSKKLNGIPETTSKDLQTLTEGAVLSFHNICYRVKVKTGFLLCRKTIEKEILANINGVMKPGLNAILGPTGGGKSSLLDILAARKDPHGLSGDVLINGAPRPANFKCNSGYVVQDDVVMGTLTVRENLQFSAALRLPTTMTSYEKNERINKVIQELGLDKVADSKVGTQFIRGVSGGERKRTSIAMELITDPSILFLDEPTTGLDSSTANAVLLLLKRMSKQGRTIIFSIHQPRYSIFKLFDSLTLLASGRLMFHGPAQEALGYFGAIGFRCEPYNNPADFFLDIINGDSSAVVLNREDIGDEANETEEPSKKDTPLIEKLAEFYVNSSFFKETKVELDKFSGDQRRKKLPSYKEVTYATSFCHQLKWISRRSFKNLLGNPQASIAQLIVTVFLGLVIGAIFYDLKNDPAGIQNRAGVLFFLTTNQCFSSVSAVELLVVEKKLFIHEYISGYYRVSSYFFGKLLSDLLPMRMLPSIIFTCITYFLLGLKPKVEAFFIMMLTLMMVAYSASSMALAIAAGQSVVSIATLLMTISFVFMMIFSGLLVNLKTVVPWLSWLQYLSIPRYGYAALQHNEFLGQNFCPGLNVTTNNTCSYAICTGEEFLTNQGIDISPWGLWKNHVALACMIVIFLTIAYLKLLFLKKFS
In words: Transepithelial transport assay in MDCK-II cells transduced with bovine ABCG2. The series is classed as in vitro ADME. To be noted: cattle, MDCK-II bABCG2, nitroxynil 10 µM, no Ko143, read-out: Relative efflux transport ratio (BA/AB). How it is done:
as §1, §2, §3

`N#Cc1cc(I)c(O)c([N+](=O)[O-])c1` [nitroxynil]: the efflux ratio at 4 h, 10 µM in series [1] turned out to be 1.04 ± 0.03; in series [2], 3.25 ± 0.14.
